Experimental data reported in PMC3199943, “Screening the MayBridge Rule of 3 Fragment Library for Compounds That Interact with the Trypanosoma brucei myo-Inositol-3-Phosphate Synthase and/or Show Trypanocidal Activity” (Molecular Biology International, 2011).
Like-named read-outs stand apart in the source and are kept apart here.

Experiments:
TbINO1 = target: T1, TbINO1 (Trypanosoma brucei brucei, UniProt Q5QQ46); experiment: biochemical; assay type: binding
T1 sequence (Q5QQ46 1-528): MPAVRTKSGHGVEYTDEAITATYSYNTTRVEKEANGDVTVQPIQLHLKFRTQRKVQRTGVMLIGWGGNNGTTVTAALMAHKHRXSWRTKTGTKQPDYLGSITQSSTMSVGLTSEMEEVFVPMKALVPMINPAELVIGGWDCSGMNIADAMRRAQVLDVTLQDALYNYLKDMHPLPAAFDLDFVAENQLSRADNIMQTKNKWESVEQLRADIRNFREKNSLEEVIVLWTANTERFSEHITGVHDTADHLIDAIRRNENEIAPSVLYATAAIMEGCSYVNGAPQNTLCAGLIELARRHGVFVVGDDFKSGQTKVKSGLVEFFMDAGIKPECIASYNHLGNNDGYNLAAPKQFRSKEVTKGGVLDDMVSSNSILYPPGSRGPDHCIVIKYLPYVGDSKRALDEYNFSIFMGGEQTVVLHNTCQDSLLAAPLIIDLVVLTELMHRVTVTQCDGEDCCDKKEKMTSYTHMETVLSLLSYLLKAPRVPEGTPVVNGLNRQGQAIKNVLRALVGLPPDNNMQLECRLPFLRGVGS

HeLa cells = experiment: cells; conditions: for HeLa Cells Alamar Blue: Supplementary Table 1; for viability at 500 µM / CC50: Homo sapiens, HeLa; for viability at 500 µM: 65 h; for CC50: read-out: HeLa ED50
Outline: (§1)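 HeLa and A549 cells grown in DMEM with 10% FCS and 2 mM L-Glutamine were seeded at 2 × 10^4 cells/well. They were exposed to compounds for ~65 hours, then Alamar Blue was added for a further 5 hours to measure viability.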

A549 cells = experiment: Cytotoxicity against A549 cells, Alamar Blue; assay type: cell-based; conditions: Supplementary Table 1, compound 0.5 mM, percentage of controls (n=1); for viability at 500 µM: Homo sapiens, A549, 65 h
Outline: as §1

[1] = Supplementary Table 1, compound 1mM, mean ± SD from Boltzman curve fitting
[2] = compound 0.5 mM, percentage of controls, mean ± SD (n=3) or SE (n=2)
[3] = Supplementary Table 1, compound 1mM, mean ± SD from Boltzman curve fitting, read-out: Tb Ino1 Tm Shift [˚C]
[4] = read-out: HeLa Cells Alamar Blue, Supplementary Table 1, compound 0.5 mM, percentage of controls, mean ± SD (n=3) or SE (n=2)
[5] = read-out: HeLa Cells Alamar Blue
[6] = read-out: HeLa Cells Alamar Blue (% survival)
[7] = read-out: Tb Ino1 Tm Shift [˚C]

Structure (SMILES)	Tb Ino1 Tm Shift [˚C] (TbINO1; [1])	HeLa Cells Alamar Blue (HeLa cells; [2])	A549 Cells Alamar Blue (A549 cells)	viability at 500 µM (A549 cells)	viability at 500 µM (HeLa cells; [5])	ΔTm at 1000 µM (TbINO1; [7])	other results
CN(C)C1(CN)CCSC1 (stereo not drawn) [compound 268, 3‐(aminomethyl)‐N,N‐dimethyltetrahydro‐3‐thiophenamine]	0.32 ± 0.07 °C	88.4 ± 17.9 percentage of controls	87.3 percentage of controls				
O=C(O)c1ccc2cc[nH]c2c1 [compound 271, 1H‐indole‐6‐carboxylic acid]				75.6%			ΔTm at 1000 µM (TbINO1; [3]): 0.06 ± 0.08 °C; viability at 500 µM (HeLa cells; [4]): 111 ± 16.2%
O=C1CC(c2ccccc2)=NO1 [compound 272, 3-phenyl-4,5-dihydroisoxazol-5-one]				61.5%	89.4 ± 3.9%		ΔTm at 1000 µM (TbINO1; read-out: TbIno1 Tm shift [°C]): 3.56 ± 0.06 °C; viability at 500 µM (HeLa cells; [6]): 89.4 ± 3.9%
O=C(O)c1c[nH]c2ccccc12 [compound 273, 1H‐indole‐3‐carboxylic acid]				61.8%	85.4 ± 12.2%	0.01 ± 0.05 °C	
Fc1ccc(-n2cccc2)cc1 [compound 276, 1‐(4‐fluorophenyl)‐1H‐pyrrole]				70.2%	104 ± 16.6%	0.75 ± 0.08 °C	
OCCc1c[nH]c2ccccc12 [compound 277, 2‐(1H‐indol‐3‐yl)ethan‐1‐ol]				59.9%	66.3 ± 1.7%	1.12 ± 0.06 °C	
ON=C1CCCc2ccccc21 [compound 279, 1,2,3,4‐tetrahydronaphthalen‐1‐one oxime]	0.76 ± 0.08 °C	19.9 ± 19.7 percentage of controls	16.9 percentage of controls				
Nc1ccc2c(c1)CCCC2=O [compound 280, 6‐amino‐1,2,3,4‐tetrahydronaphthalen‐1‐one]	0.82 ± 0.09 °C	40.5 ± 19.2 percentage of controls	87.3 percentage of controls				
Cn1c(CN)nc2ccccc21 [compound 281, (1‐methyl‐1H‐benzimidazol‐2‐yl)methylamine]				53.8%	47.6 ± 19.8%	0.7 ± 0.04 °C	CC50 (HeLa cells): 659 ± 65 µM
Cn1nc2ccccc2c1CO [compound 285, (2‐methyl‐2H‐indazol‐3‐yl)methanol]				67.6%	73.4 ± 10.6%	0.29 ± 0.07 °C	
CCCc1ccc(C(C)=O)cc1 [compound 288, 1‐(4‐propylphenyl)ethan‐1‐one]				90.6%	72.2 ± 17.1%	0.22 ± 0.08 °C	
O=C(O)C1Cc2ccccc2N1 (stereo not drawn) [compound 292, indoline-2-carboxylic acid]				78.3%	37.6 ± 25%		ΔTm at 1000 µM (TbINO1; read-out: TbIno1 Tm shift [°C]): 1.54 ± 0.11 °C; viability at 500 µM (HeLa cells; [6]): 37.6 ± 2.5%
OCc1cc2ccccc2s1 [compound 301, 1‐benzothiophen‐2‐ylmethanol]				71%	90.7 ± 4.5%	0.01 ± 0.05 °C	
CC(=O)Nc1cc(C)ccc1O [compound 303, N1‐(2‐hydroxy‐5‐methylphenyl)acetamide]	0.15 ± 0.07 °C	95.3 ± 9.8 percentage of controls	45 percentage of controls				
CNCc1ccc2c(c1)OCO2 [compound 305, N‐(1,3‐benzodioxol‐5‐ylmethyl)‐N‐methylamine]	1.12 ± 0.05 °C	56.8 ± 29.4 percentage of controls	58.3 percentage of controls				
OCC1CNc2ccccc2O1 (stereo not drawn) [compound 307, 3,4‐dihydro‐2H‐1,4‐benzoxazin‐2‐ylmethanol]	0.56 ± 0.06 °C	81 ± 17.2 percentage of controls	70.8 percentage of controls				

Structure (SMILES)	Tb Ino1 Tm Shift [˚C] (TbINO1; [1])	HeLa Cells Alamar Blue (HeLa cells; [2])	A549 Cells Alamar Blue (A549 cells)	viability at 500 µM (A549 cells)	viability at 500 µM (HeLa cells; [5])	ΔTm at 1000 µM (TbINO1; [7])	other results
OCc1cc2cccnc2s1 [compound 311, thieno[2,3‐b]pyridin‐2‐ylmethanol]				77.5%	92 ± 11.8%	0.8 ± 0.08 °C	
Nc1cc(-c2cccs2)[nH]n1 [compound 313, 5‐thien‐2‐yl‐1H‐pyrazol‐3‐amine]				81.7%	101 ± 18.9%	0.69 ± 0.08 °C	
CN1N=C(C(F)(F)F)CC1=O [compound 315, 1‐methyl‐3‐(trifluoromethyl)‐4,5‐dihydro‐1H‐pyrazol‐5‐one]	0.09 ± 0.08 °C	109.2 ± 4.4 percentage of controls	88.3 percentage of controls				
O=C(O)CCc1ccccc1O [compound 323, 3‐(2‐hydroxyphenyl)propanoic acid]				110%	113 ± 2.8%	1.23 ± 0.07 °C	
N#Cc1scc2c1OCCO2 [compound 327, 2,3‐dihydrothieno[3,4‐b][1,4]dioxine‐5‐carbonitrile]	0.12 ± 0.06 °C	115.5 ± 14.4 percentage of controls	121.1 percentage of controls				
O=C(O)c1cc2sccc2[nH]1 [compound 328, 4H-thieno[3,2-b]pyrrole-5-carboxylic acid]				136%			ΔTm at 1000 µM (TbINO1; read-out: TbIno1 Tm shift [°C]): 2.29 ± 0.1 °C; viability at 500 µM (HeLa cells; read-out: HeLa Cells Alamar Blue (% survival), compound 0.5 mM, percentage of controls): 106 ± 6.9%; viability at 500 µM (HeLa cells; [4]): 106 ± 6.9%
COc1ccc(OC)c(CN)c1 [compound 329, 2,5‐dimethoxybenzylamine]				156%	26 ± 9%		ΔTm at 1000 µM (TbINO1; [3]): 0.97 ± 0.05 °C
CCOC(=O)c1[nH]c(C)cc1C [compound 330, ethyl 3,5‐dimethyl‐1H‐pyrrole‐2‐carboxylate]				156%	122 ± 12.3%	0.61 ± 0.06 °C	
Cn1c(CO)cc2sccc21 [compound 331, (4-methyl-4H-thieno[3,2-b]pyrrol-5-yl)methanol]				121%	93.6 ± 14.9%		ΔTm at 1000 µM (TbINO1; read-out: TbIno1 Tm shift [°C]): 1.54 ± 0.07 °C; viability at 500 µM (HeLa cells; [6]): 93.6 ± 14.9%; CC50 (HeLa cells): 169 ± 10 µM
OC1CCC(C(F)(F)F)CC1 (stereo not drawn) [compound 333, 4‐(trifluoromethyl)cyclohexan‐1‐ol]				114%	110 ± 4.4%	0.47 ± 0.04 °C	
N#Cc1cccc(-n2ccnc2)c1 [compound 339, 3‐(1H‐imidazol‐1‐yl)benzonitrile]				135%	89.8 ± 5.8%	0.39 ± 0.06 °C	
N#Cc1ccccc1-n1cccn1 [compound 340, 2‐(1H‐pyrazol‐1‐yl)benzonitrile]				134%	104 ± 16.5%	0.18 ± 0.06 °C	
Cl.c1ccc2c(c1)CCNC2 [compound 343, 1,2,3,4‐tetrahydroisoquinoline hydrochloride]	0.37 ± 0.06 °C	83.5 ± 7.8 percentage of controls	86.3 percentage of controls				
CC1CCN(CC(C)(C)N)CC1 [compound 349, 2‐methyl‐1‐(4‐methylpiperidino)‐2‐propanamine]	0.53 ± 0.06 °C	108.4 ± 7.2 percentage of controls	144.1 percentage of controls				
Cc1cc(Cl)ccc1C(=O)O [compound 350, 4‐chloro‐2‐methylbenzoic acid]				160%	108 ± 9.9%	1.05 ± 0.07 °C	
